We go through six molecules from ChEMBL document CHEMBL4354795, “Amino Acid Scanning at P5' within the Bowman-Birk Inhibitory Loop Reveals Specificity Trends for Diverse Serine Proteases” (J Med Chem, 2019).

In experiment [1] the target is T1, Kallikrein-5 (Homo sapiens, UniProt Q9Y337).
T1 sequence (Q9Y337 whole entry): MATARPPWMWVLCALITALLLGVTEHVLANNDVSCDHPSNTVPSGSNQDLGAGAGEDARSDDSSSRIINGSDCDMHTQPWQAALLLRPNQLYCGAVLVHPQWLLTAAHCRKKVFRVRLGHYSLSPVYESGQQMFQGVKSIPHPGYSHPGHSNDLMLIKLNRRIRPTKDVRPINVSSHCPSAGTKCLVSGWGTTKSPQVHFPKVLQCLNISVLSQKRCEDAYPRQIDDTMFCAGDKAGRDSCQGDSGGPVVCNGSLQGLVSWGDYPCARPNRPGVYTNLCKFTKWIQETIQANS
The experiment can be described thus: Inhibition of recombinant human KLK5 expressed in expressed in Pichia pastoris X-33 cells using Boc-VPR-MCA as susbtrate measured every 60 secs for 10 mins by fluorescence based assay.

The target of experiment [2] is T2, Kallikrein-7 (Homo sapiens, UniProt P49862). Put plainly: Inhibition of recombinant human KLK7 expressed in expressed in Pichia pastoris X-33 cells using KHLY-pNA as susbtrate measured every 15 secs for 10 mins by colorimetric analysis.
Target sequence in this assay (P49862 whole entry): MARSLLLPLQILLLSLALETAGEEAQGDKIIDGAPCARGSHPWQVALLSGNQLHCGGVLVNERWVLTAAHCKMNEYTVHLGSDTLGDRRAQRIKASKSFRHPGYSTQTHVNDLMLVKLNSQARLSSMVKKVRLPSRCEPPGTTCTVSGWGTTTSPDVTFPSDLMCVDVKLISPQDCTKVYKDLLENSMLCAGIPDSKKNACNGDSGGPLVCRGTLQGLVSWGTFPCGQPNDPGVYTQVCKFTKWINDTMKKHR
Experiment [3] can be described thus: Inhibition of human cationic trypsin using Boc-VPR-MCA as susbtrate measured every 60 secs for 10 mins by fluorescence based assay.
The target in experiment [4] is T3, Suppressor of tumorigenicity 14 protein (Homo sapiens, UniProt Q9Y5Y6).
T3 sequence (Q9Y5Y6 whole entry): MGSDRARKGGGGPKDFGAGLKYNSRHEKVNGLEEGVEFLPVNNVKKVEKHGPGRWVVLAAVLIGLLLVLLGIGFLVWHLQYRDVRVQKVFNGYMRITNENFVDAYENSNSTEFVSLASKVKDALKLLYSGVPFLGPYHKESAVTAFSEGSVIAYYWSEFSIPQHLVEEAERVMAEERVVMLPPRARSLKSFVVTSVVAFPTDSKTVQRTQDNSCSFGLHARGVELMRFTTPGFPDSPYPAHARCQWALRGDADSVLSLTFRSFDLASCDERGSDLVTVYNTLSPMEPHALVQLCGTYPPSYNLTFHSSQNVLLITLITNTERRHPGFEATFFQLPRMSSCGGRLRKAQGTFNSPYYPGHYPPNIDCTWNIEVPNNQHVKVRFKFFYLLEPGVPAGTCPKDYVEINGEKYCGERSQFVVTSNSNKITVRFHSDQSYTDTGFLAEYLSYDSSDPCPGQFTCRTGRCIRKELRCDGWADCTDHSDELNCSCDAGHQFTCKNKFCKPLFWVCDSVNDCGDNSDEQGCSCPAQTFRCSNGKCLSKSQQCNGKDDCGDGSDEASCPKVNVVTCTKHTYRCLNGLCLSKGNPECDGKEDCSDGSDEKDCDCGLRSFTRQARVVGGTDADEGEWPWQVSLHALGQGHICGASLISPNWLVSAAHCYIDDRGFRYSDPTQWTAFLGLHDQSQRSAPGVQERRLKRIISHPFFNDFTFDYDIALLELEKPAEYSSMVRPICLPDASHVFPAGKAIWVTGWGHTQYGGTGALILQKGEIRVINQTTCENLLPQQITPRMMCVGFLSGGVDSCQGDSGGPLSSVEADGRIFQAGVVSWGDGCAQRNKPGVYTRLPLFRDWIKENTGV
The experiment can be described thus: Inhibition of recombinant human matriptase using Boc-QAR-MCA as susbtrate measured every 60 secs for 10 mins by fluorescence based assay.

Experiment [5] has as its target T2, Kallikrein-7. Put plainly: Inhibition of recombinant human KLK7 expressed in expressed in Pichia pastoris X-33 cells at 5 uM using KHLY-pNA as susbtrate measured every 15 secs for 10 mins by colorimetric analysis relative to control.
Target sequence in this assay (P49862 30-253 limits assumed): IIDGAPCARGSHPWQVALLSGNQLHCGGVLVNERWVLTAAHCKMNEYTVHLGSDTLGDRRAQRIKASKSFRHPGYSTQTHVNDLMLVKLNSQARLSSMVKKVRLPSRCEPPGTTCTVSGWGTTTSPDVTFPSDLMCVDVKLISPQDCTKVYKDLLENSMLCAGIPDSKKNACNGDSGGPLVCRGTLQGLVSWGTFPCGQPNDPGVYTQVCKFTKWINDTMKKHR
In experiment [6] the target is T2, Kallikrein-7. Put plainly: Inhibition of recombinant human KLK7 expressed in expressed in Pichia pastoris X-33 cells at 10 uM using KHLY-pNA as susbtrate measured every 15 secs for 10 mins by colorimetric analysis relative to control.
Target sequence in this assay (P49862 30-253 limits assumed): as above
For experiment [7], the species on record is Homo sapiens. Put plainly: Inhibition of human cationic trypsin at 10 uM using Boc-VPR-MCA as susbtrate measured every 60 secs for 10 mins by fluorescence based assay relative to control.
In experiment [8] the target is T4, Suppressor of tumorigenicity 14 protein (Homo sapiens) (UniProt Q9Y5Y6).
T4 sequence (whole entry): T3 sequence (Q9Y5Y6 whole entry)
The experiment can be described thus: Inhibition of recombinant human matriptase at 10 uM using Boc-QAR-MCA as susbtrate measured every 60 secs for 10 mins by fluorescence based assay relative to control.

In experiment [9] the target is T2, Kallikrein-7. Put plainly: Inhibition of recombinant KLK7 (unknown origin) expressed in Pichia pastoris X-33 cells using p-NA peptide as substrate measured every 10 secs for 300 secs by spectrophotometric analysis.
Target sequence in this assay (P49862 whole entry): as the sequence (P49862 whole entry) above
In experiment [10] the target is T1, Kallikrein-5. Put plainly: Inhibition of recombinant KLK5 (unknown origin) expressed in Pichia pastoris X-33 cells using pNA peptide as susbtrate measured every 10 secs for 300 secs by spectrometric analysis.
Experiment [11] deals with T3, Suppressor of tumorigenicity 14 protein. Put plainly: Inhibition of recombinant human matriptase catalytic domain using Boc-QARAMC as substrate preincubated for 1 hr followed by substrate addition.

Bridge positions count the residues as written; N and C are the ends. Peptide text beside a SMILES is read from it.

What is called Ki is a measure of affinity in units of concentration, obtained from inhibition or displacement. Usually IC50 stands for the midpoint of a concentration-inhibition curve. What is called inhibition is how much of the control response was suppressed. Consider `N=C(N)NCCC[C@@H]1NC(=O)[C@H](Cc2cnc[nH]2)NC(=O)[C@@H]2CSSC[C@H](NC(=O)[C@H](CCC(=O)O)NC(=O)[C@@H]3CCCN3C(=O)[C@@H]3CCCN3C(=O)[C@H](Cc3ccc(O)cc3)NC(=O)[C@H](CO)NC1=O)C(=O)N[C@@H](Cc1c[nH]c3ccccc13)C(=O)N1CCC[C@H]1C(=O)N[C@@H](CC(N)=O)C(=O)NCC(=O)N[C@@H](Cc1ccccc1)C(=O)N2`, for which the inhibition constant (Ki) in experiment [1] stood at 0.0024 µM. The IC50 is more than 5 µM in experiment [2], more than 10 µM in [3] and more than 10 µM in experiment [4]. Besides, in experiment [5], the inhibition is less than 50%.

On to `N=C(N)NCCC[C@@H]1NC(=O)[C@H](Cc2cnc[nH]2)NC(=O)[C@@H]2CSSC[C@H](NC(=O)[C@H](CC(=O)O)NC(=O)[C@@H]3CCCN3C(=O)[C@@H]3CCCN3C(=O)[C@H](Cc3ccc(O)cc3)NC(=O)[C@H](CO)NC1=O)C(=O)N[C@@H](Cc1ccccc1)C(=O)N1CCC[C@H]1C(=O)N[C@@H](CC(N)=O)C(=O)NCC(=O)N[C@@H](Cc1ccccc1)C(=O)N2` (cyclo(CFPNGFCHRSYPPD); disulfide 1-7), for which, in [1], the inhibition constant Ki stood at 0.0089 µM.

On to `N=C(N)NCCC[C@@H]1NC(=O)[C@H](Cc2cnc[nH]2)NC(=O)[C@@H]2CSSC[C@H](NC(=O)[C@H](CCC(=O)O)NC(=O)[C@@H]3CCCN3C(=O)[C@@H]3CCCN3C(=O)[C@H](Cc3ccc(O)cc3)NC(=O)[C@H](CO)NC1=O)C(=O)N[C@@H](Cc1ccccc1)C(=O)N1CCC[C@H]1C(=O)N[C@@H](CC(N)=O)C(=O)NCC(=O)N[C@@H](Cc1ccccc1)C(=O)N2` (cyclo(CFPNGFCHRSYPPE); disulfide 1-7), for which the Ki in [1] was 0.0037 µM. The IC50 in experiment [2], in experiment [3] and in [4] was more than 10 µM each time. The inhibition in [6], in experiment [7] and in experiment [8] was less than 50% each time.

For `CC[C@H](C)[C@@H]1NC(=O)[C@@H]2CCCN2C(=O)[C@@H]2CCCN2C(=O)[C@H]([C@@H](C)CC)NC(=O)[C@H](CO)NC(=O)[C@H](CCCCN)NC(=O)[C@H]([C@@H](C)O)NC(=O)[C@@H]2CSSC[C@H](NC1=O)C(=O)N[C@@H](Cc1ccccc1)C(=O)N1CCC[C@H]1C(=O)N[C@@H](CC(N)=O)C(=O)NCC(=O)N[C@@H](CCCNC(=N)N)C(=O)N2` (cyclo(CFPNGRCTKSIPPI); disulfide 1-7), the concentration for half-maximal inhibition (IC50) in experiment [9] was more than 10 µM. Besides, the Ki amounted to 0.143 µM in experiment [10] and 0.2 µM in experiment [11].

Turning to `N=C(N)NCCC[C@@H]1NC(=O)[C@H](CC(N)=O)NC(=O)[C@@H]2CSSC[C@H](NC(=O)[C@H](CC(=O)O)NC(=O)[C@@H]3CCCN3C(=O)[C@@H]3CCCN3C(=O)[C@H](Cc3ccc(O)cc3)NC(=O)[C@H](CO)NC1=O)C(=O)N[C@@H](Cc1ccccc1)C(=O)N1CCC[C@H]1C(=O)N[C@@H](CC(N)=O)C(=O)NCC(=O)N[C@@H](Cc1ccc(O)cc1)C(=O)N2` (cyclo(CFPNGYCNRSYPPD); disulfide 1-7), the Ki in experiment [1] stood at 0.00073 µM.

With `N=C(N)NCCC[C@@H]1NC(=O)[C@H](CC(N)=O)NC(=O)[C@@H]2CSSC[C@H](NC(=O)[C@H](CCC(=O)O)NC(=O)[C@@H]3CCCN3C(=O)[C@@H]3CCCN3C(=O)[C@H](Cc3ccc(O)cc3)NC(=O)[C@H](CO)NC1=O)C(=O)N[C@@H](Cc1ccccc1)C(=O)N1CCC[C@H]1C(=O)N[C@@H](CC(N)=O)C(=O)NCC(=O)N[C@@H](Cc1ccc(O)cc1)C(=O)N2` (cyclo(CFPNGYCNRSYPPE); disulfide 1-7), in experiment [1], the Ki is 0.00034 µM. Further, the IC50 is more than 10 µM in experiment [2], more than 2 µM in [3] and more than 10 µM in [4].
